Converted amounts (≈) assume the structure as drawn.
Assays:
C. albicans Gu4 [1] = assay: Antifungal in vitro activity, serial two-fold dilution, YNB-AS medium; format: cell-based; details: Candida albicans, C. albicans Gu4 (fluconazole-sensitive isolate)
Method: (§1) The antifungal in vitro activity of conjugates 24a–d and 35 was determined by the serial two-fold dilution method, using the 96-well microtiter plates, in two growth media, RPMI-1640 and YNB-AS, against seven yeast species from the Candida genus. The MIC50 and MIC90 values, i.e., concentrations at which cell growth was inhibited in 50% and 90%, respectively, were measured and compared to those of the intact cispentacin. The concentration values presented in Table 1 and Table 2 are expressed in mM units to allow the comparison of the compounds’ effectiveness at the molecular level. For data expressed in μg mL^−1 units, such comparison is not possible, since the molecular masses of conjugates (≈1755–2114 D range) are 14–16-fold higher than that of cispentacin (128.3 D).
(§2) The reference strains used in this study were Candida albicans ATCC 10231, Candida glabrata DSM 11226, and Candida krusei DSM 6128. C. albicans B3, B4, Gu4, and Gu5 clinical isolates were kindly provided by Joachim Morschhäuser, Würzburg, Germany. Gu4 and B3 are fluconazole-sensitive isolates obtained from early infection episodes, while Gu5 and B4 are the corresponding fluconazole-resistant isolates obtained from later episodes in the same patients treated with fluconazole. Strains were grown at 30 °C in YPD medium (2% glucose, 1% yeast extract, and 1% Bacto-Peptone) and stored on YPD agar plates containing 2% agar.
(§3) Susceptibility testing was performed in two growth media: (a) RPMI-1640 w/o sodium bicarbonate, with L-glutamine + 2% glucose + 3.45% MOPS, pH adjusted to 7.0; (b) YNB-AS—Yeast Nitrogen Base w/o amino acids (contains ammonium sulfate 5 g L^−1) + 2% glucose. The in vitro growth inhibitory activity of antifungals was quantified by determination of MIC50 and MIC90 values by the serial two-fold dilution method, using the 96-well microtiter plates. Serial dilutions of cispentacin and its conjugates were prepared in the 4–0.015 mM range.
(§4) Conditions of the RPMI-1640-based assay were the same as outlined in the CLSI recommendations except for the end-point readout that was done by spectrophotometric determination of cell density at 660 nm. Turbidity in individual wells was measured with a microplate reader (Victor^3; Perkin Elmer). The 96-well microtiter plates were also used for the determination of in vitro growth inhibitory activity in YNB-AS medium. Individual wells were inoculated with 5 × 10^3 Candida cells mL^−1 from the overnight culture in YPD medium. The plates were incubated at 37 °C for 24 h, and then, turbidity was measured with a microplate reader at 660 nm, as described above for the RPMI-1640-based assay.
(§5) Values of MIC50 and MIC90 were read from the graphs of A660 vs. drug concentration and corresponded to the interpolated values of drug concentration at which A660 was 50% or 10% of that measured for the drug-free control.

C. albicans B3 [2] = assay: as above; format: cell-based; details: Candida albicans, C. albicans B3 (fluconazole-sensitive isolate)
Method: as §1, §2, §3, §4, §5

[3] = tested on: Candida glabrata DSM 11226; assay: as above; format: cell-based; details: Nakaseomyces glabratus, DSM11226, C. glabrata
Method: as §1, §2, §3, §4, §5

C. albicans Gu5 [4] = assay: as above; format: cell-based; details: Candida albicans, C. albicans Gu5 (fluconazole-resistant isolate)
Method: as §1, §2, §3, §4, §5

Candida krusei DSM 6128 [5] = assay: as above; format: cell-based; details: Pichia kudriavzevii, DSM6128, C. krusei
Method: as §1, §2, §3, §4, §5

C. albicans B4 [6] = assay: as above; format: cell-based; details: Candida albicans, C. albicans B4 (fluconazole-resistant isolate)
Method: as §1, §2, §3, §4, §5

C. albicans ATCC 10231 [7] = assay: Antifungal in vitro activity, serial two-fold dilution, RPMI-1640 medium; format: cell-based; details: Candida albicans, ATCC10231, >>1 = no growth inhibition at 1 mM
Method: as §1, with “For data expressed in μg mL^−1 units, such comparison is not possible, since the molecular masses of conjugates (≈1755–2114 D range) are 14–16-fold higher than that of cispentacin (128.3 D).” left out
as §3, with “Serial dilutions of cispentacin and its conjugates were prepared in the 4–0.015 mM range.” left out
(§6) Conditions of the RPMI-1640-based assay were the same as outlined in the CLSI recommendations except for the end-point readout that was done by spectrophotometric determination of cell density at 660 nm. Turbidity in individual wells was measured with a microplate reader (Victor^3; Perkin Elmer). […]

C. albicans Gu4 [8] = assay: as above; format: cell-based; details: Candida albicans, C. albicans Gu4 (fluconazole-sensitive isolate)
Method: as §1, §2, §3, §4, §5

C. albicans B3 [9] = assay: as above; format: cell-based; details: Candida albicans, C. albicans B3 (fluconazole-sensitive isolate)
Method: as §1, §2, §3, §4, §5

[10] = tested on: Candida glabrata DSM 11226; assay: as above; format: cell-based; details: Nakaseomyces glabratus, DSM11226, C. glabrata
Method: as §1, §2, §3, §4, §5

C. albicans Gu5 [11] = assay: as above; format: cell-based; details: Candida albicans, C. albicans Gu5 (fluconazole-resistant isolate)
Method: as §1, §2, §3, §4, §5

Candida krusei DSM 6128 [12] = assay: as above; format: cell-based; details: Pichia kudriavzevii, DSM6128, C. krusei
Method: as §1, §2, §3, §4, §5

C. albicans B4 [13] = assay: as above; format: cell-based; details: Candida albicans, C. albicans B4 (fluconazole-resistant isolate)
Method: as §1, §2, §3, §4, §5

C. albicans ATCC 10231 [14] = assay: Antifungal in vitro activity, serial two-fold dilution, YNB-AS medium; format: cell-based; details: Candida albicans, ATCC10231, >>1 = no growth inhibition at 1 mM
Method: as §1, with “For data expressed in μg mL^−1 units, such comparison is not possible, since the molecular masses of conjugates (≈1755–2114 D range) are 14–16-fold higher than that of cispentacin (128.3 D).” left out
as §3, with “Serial dilutions of cispentacin and its conjugates were prepared in the 4–0.015 mM range.” left out
as §6

[15] = tested on: C. albicans cell-free extract; format: in vitro ADME, Candida albicans; details: conjugate 150 µM, 30 °C, 0, 30, 120 min
Method: (§7) Conjugates 24a–d, containing the TML system, were tested for susceptibility to enzymatic cleavage in the model system with pig liver esterase and in cell-free extract prepared from C. albicans cells. Conjugate 35 containing the o-dithiobenzylcarbamoyl linker was tested in the model system with glutathione and in C. albicans cell-free extract.
C. albicans cells were harvested from the culture in YPD medium in the logarithmic phase of growth and washed with PBS, pH 7.4. Then, cells were suspended in a minimal amount of PBS to an optical density OD660 ≈ 1.5. A sample of 1.5 mL of the cell suspension was put into the Lysing Matrix D, 2 mL tubes containing 1.4 mm ceramic spheres (MP Biomedicals). The tubes were vortexed 5 times for 2 min intervals, with 2 min breaks for cooling in the ice/water bath. Finally, the mixtures were centrifuged (10,000× g, 4 °C, 20 min), and the supernatant was pushed through the syringe filter, 0.22 μm pore size, to remove unbroken cells. The thus-obtained cell-free extract was kept at 4 °C and used no later than 5 h after preparation.
(§8) Analysis of cleavage of the conjugates was performed in two experimental systems: (A) model system, in the presence of pig liver esterase or glutathione, reduced; (B) in C. albicans cell-free extract.
A given conjugate was dissolved in 4 mL of C. albicans cell-free extract to the initial concentration of 150 µM. Mixtures were incubated at 30 °C. Samples of 1 mL were collected at zero time, after 30 min, and after 120 min. The collected samples were immediately de-proteinized by centrifugation (4 °C, 5000× g, 10 min) in Amicon® Ultra-4 Centrifugal Filter Units, 3 kDa cutoff limit. Samples of 50 μL were collected from the filtrates and subjected to HPLC-MS analysis.
(§9) The HPLC-MS system consisted of a liquid chromatograph, a degasser, a binary pomp, an auto-sampler, and a column oven, which was combined with an MS detector with an electrospray source (AJS ESI) and quadrupole analyzer (1260 Infinity II and 6470 Triple Quad LC/MS, Agilent Technologies, Waldbronn, Germany). The ChemStation software was used to control the LC-MS system and for data processing.
(§10) Chromatographic separations were performed on an Eclipse XDB-C18 column (150 mm × 4.6 mm, 5 μm). For the separation, a gradient of mobile phase A (H2O + 0.01% HCOOH) and mobile phase B (100% methanol) was used. The gradient profile was set as follows: 0 min—95% effluent A, 8 min—70% effluent A, 11 min—50% effluent A, 12 min—95% effluent A, 17 min—95% effluent A. The flow rate was 1 mL min^−1, the column temperature was 25 °C, and the injection volume was 20 μL.
(§11) The electrospray source operated in a negative mode. The data were collected in a MS scanning mode (MS2 SCAN) with the range 150–700 (m/z).

pig liver esterase = assay: HPLC-MS analysis of conjugate cleavage, model system with pig liver esterase; format: in vitro ADME; details: pig liver esterase 5 mg mL^−1; conjugate 150 µM; 30 °C; 0, 30, 120 min
Method: as §7, §8
Mixtures containing a given conjugate at the initial concentration of 150 µM and pig liver esterase, 5 mg mL^−1 or 10 mM glutathione, reduced, in a total volume of 200 μL were incubated at 30 °C. Samples of 50 μL were collected at zero time, after 30 min, and after 120 min and subjected to HPLC-MS analysis.
as §9, §10, §11

Candida spp. = assay: Antifungal in vitro activity, summary statements over the Candida strains tested; format: cell-based; details: RPMI-1640 medium
Method: as §1, §3, §4, §5

N[C@H]1CCC[C@H]1C(=O)O [CisP, cispentacin]
MIC50 (C. albicans Gu4 [1]): 150 µM (≈ 19.4 µg/mL)
MIC90 (C. albicans Gu4 [1]): 180 µM (≈ 23.2 µg/mL)
MIC50 (C. albicans B3 [2]): 110 µM (≈ 14.2 µg/mL)
MIC90 (C. albicans B3 [2]): 150 µM (≈ 19.4 µg/mL)
MIC50 [3]: 100 µM (≈ 12.9 µg/mL)
MIC90 [3]: 500 µM (≈ 64.6 µg/mL)
MIC50 (C. albicans Gu5 [4]): 270 µM (≈ 34.9 µg/mL)
MIC90 (C. albicans Gu5 [4]): 390 µM (≈ 50.4 µg/mL)
MIC50 (Candida krusei DSM 6128 [5]): 90 µM (≈ 11.6 µg/mL)
MIC90 (Candida krusei DSM 6128 [5]): 150 µM (≈ 19.4 µg/mL)
MIC50 (C. albicans B4 [6]): 170 µM (≈ 22 µg/mL)
MIC90 (C. albicans B4 [6]): 280 µM (≈ 36.2 µg/mL)
MIC50 (C. albicans ATCC 10231 [7]): 80 µM (≈ 10.3 µg/mL)
MIC90 (C. albicans ATCC 10231 [7]): 340 µM (≈ 43.9 µg/mL)
MIC50 (C. albicans Gu4 [8]): 260 µM (≈ 33.6 µg/mL)
MIC90 (C. albicans Gu4 [8]): 420 µM (≈ 54.2 µg/mL)
MIC50 (C. albicans B3 [9]): 210 µM (≈ 27.1 µg/mL)
MIC90 (C. albicans B3 [9]): 360 µM (≈ 46.5 µg/mL)
MIC50 [10]: 510 µM (≈ 65.9 µg/mL)
MIC90 [10]: > 1000 µM
MIC50 (C. albicans Gu5 [11]): 410 µM (≈ 53 µg/mL)
MIC90 (C. albicans Gu5 [11]): 640 µM (≈ 82.7 µg/mL)
MIC50 (Candida krusei DSM 6128 [12]): 280 µM (≈ 36.2 µg/mL)
MIC90 (Candida krusei DSM 6128 [12]): 570 µM (≈ 73.6 µg/mL)
MIC50 (C. albicans B4 [13]): 340 µM (≈ 43.9 µg/mL)
MIC90 (C. albicans B4 [13]): 580 µM (≈ 74.9 µg/mL)
MIC50 (C. albicans ATCC 10231 [14]): 20 µM (≈ 2.58 µg/mL)
MIC90 (C. albicans ATCC 10231 [14]): 100 µM (≈ 12.9 µg/mL)

Cc1cc(C)c(C(C)(C)CC(=O)N[C@H]2CCC[C@H]2C(=O)O)c(OC(=O)CCCCCC(=O)N(CCCCNC(=O)CC[C@@H](C)[C@H]2CC[C@H]3[C@@H]4[C@H](OS(=O)(=O)O)C[C@@H]5C[C@H](OS(=O)(=O)O)CC[C@]5(C)[C@H]4C[C@H](OS(=O)(=O)O)[C@]23C)CCCNC(=O)CC[C@@H](C)[C@H]2CC[C@H]3[C@@H]4[C@H](OS(=O)(=O)O)C[C@@H]5C[C@H](OS(=O)(=O)O)CC[C@]5(C)[C@H]4C[C@H](OS(=O)(=O)O)[C@]23C)c1 [24c]
cleavage / release of cispentacin or its derivative (HPLC-MS) [15]: the product of a possible cleavage, with RT similar to that of cispentacin but with 17 D higher MW, was formed
cleavage / release of cispentacin (HPLC-MS) (pig liver esterase): Presence of the released cispentacin was confirmed

Cc1cc(C)c(C(C)(C)CC(=O)N[C@H]2CCC[C@H]2C(=O)O)c(OC(=O)CCC(=O)N(CCCCNC(=O)CC[C@@H](C)[C@H]2CC[C@H]3[C@@H]4CC[C@@H]5C[C@H](OS(=O)(=O)O)CC[C@]5(C)[C@H]4C[C@H](OS(=O)(=O)O)[C@]23C)CCCNC(=O)CC[C@@H](C)[C@H]2CC[C@H]3[C@@H]4CC[C@@H]5C[C@H](OS(=O)(=O)O)CC[C@]5(C)[C@H]4C[C@H](OS(=O)(=O)O)[C@]23C)c1 [24a]
cleavage / release of cispentacin or its derivative (HPLC-MS) [15]: Neither cispentacin nor the m/z 145.1/145.2 compound was found
antifungal activity (Candida spp.): devoid of antifungal activity
cleavage / release of cispentacin (HPLC-MS) (pig liver esterase): resistant to enzymatic cleavage
